According to patent US10987349B2, “Antitumor agent and bromodomain inhibitor” (FUJIFILM Corporation, priority 2016, dated 2021):

What was measured:
[1] = molecular target: T1, BRD2 BD1 (Homo sapiens, UniProt P25440); assay: Binding assay, BRD2 BD1 to acetylated histone H4 Peptide-Biotin (EPIgeneous Binding Domain Kit A); details: test compound at 300 nmol/L; read-out: Binding inhibition percentage BRD2 BD1
T1 construct: BRD2 BD1, BRD3 BD1 and BRD4 BD1 (Cisbio); purchased Cisbio
Procedure: (§1) BRD2 BD1, BRD3 BD1 and BRD4 BD1 (Cisbio), [Lys(Ac)5/8/12/16]-Histone H4(1-25)-GSGSK (Biotin) (hereinafter referred to as “Peptide-Biotin,” AnaSpec), and EPIgeneous (registered trademark) Binding Domain Kit A (Cisbio) were used to carry out an assay. That is to say, per well, 4 μL of BRD2 BD1, BRD3 BD1 or BRD4 BD1, which was adjusted to 20 nmol/L with Diluent buffer; 4 μL of 25 nmol/L Peptide-Biotin; 2 μL of Dilution buffer (Cisbio) containing dimethyl sulfoxide (DMSO) or a test compound that was serially diluted with DMSO; 5 μL of 2.5 nmol/L Streptavidin-d2; and 5 μL of Anti-Gst-Eu+^3+ Cryptate Conjugate 50-fold diluted with Detection Buffer were added to a 384-well plate (Corning).
(§2) The obtained mixture was left at rest at room temperature for 20 hours, and thereafter, the fluoresence intensity at 665 nm and 620 nm was measured using Envision plate reader (Perkin Elmer), so that the inhibition percentage (%) of the test compound against the binding of a bromodomain in a bromodomain-containing protein to Peptide-Biotin was calculated. Binding inhibition percentage (%)=[1−{(fluorescence intensity at 665 nm of test compound−added well)/(fluorescence intensity at 620 nm of test compound−added well)}/{(fluorescence intensity at 665 nm of DMSO−added well)/(fluorescence intensity at 665 nm of DMSO−added well)}]×100
(§3) Moreover, using Graphpad prism 5 (GraphPad software), 50% inhibitory concentration [IC50 (nmol/L)] was calculated according to a non-linear regression analysis (log (inhibitor) vs. response—Variable slope (four parameters)).
(§4) Regarding other test compounds, each compound was diluted with DMSO to a final concentration of 300 nmol/L by the same method as that described above, and the binding inhibition percentage (%) of each test compound at 300 nmol/L against the binding of bromodomain in a bromodomain-containing protein to acetylated histone was calculated.

[2] = molecular target: T2, BRD4 BD2 (Homo sapiens, UniProt O60885); assay: Binding assay, BRD4 BD2 to acetylated histone H4 Peptide-Biotin (EPIgeneous Binding Domain Kit B); details: test compound at 300 nmol/L; read-out: Binding inhibition percentage BRD4 BD2
T2 construct: BRD2 BD2, BRD3 BD2 and BRD4 BD2 (Cisbio); purchased Cisbio
Procedure: (§5) Moreover, BRD2 BD2, BRD3 BD2 and BRD4 BD2 (Cisbio), Peptide-Biotin (AnaSpec), and EPIgeneous (registered trademark) Binding Domain Kit B (Cisbio) were used to carry out an assay. That is, per well, 4 μL of BRD2 BD2, BRD3 BD2 or BRD4 BD2, which was adjusted to 20 nmol/L with Diluent buffer; 4 μL of 250 nmol/L Peptide-Biotin; 2 μL of Dilution buffer (Cisbio) containing DMSO or a test compound that was serially diluted with DMSO; 5 μL of 25 nmol/L Streptavidin-XL665; 5 μL of Anti-Gst-Eu+^3+ Cryptate Conjugate 50-fold diluted with Detection Buffer were added to a 384-well plate (Corning).
as §2, §3, §4

[3] = molecular target: T3, BRD3 BD1 (Homo sapiens, UniProt Q15059); assay: Binding assay, BRD3 BD1 to acetylated histone H4 Peptide-Biotin (EPIgeneous Binding Domain Kit A); details: test compound at 300 nmol/L; read-out: Binding inhibition percentage BRD3 BD1
T3 construct: BRD2 BD1, BRD3 BD1 and BRD4 BD1 (Cisbio); purchased Cisbio
Procedure: as §1, §2, §3, §4

[4] = molecular target: T4, BRD4 BD1 (Homo sapiens, UniProt O60885); assay: Binding assay, BRD4 BD1 to acetylated histone H4 Peptide-Biotin (EPIgeneous Binding Domain Kit A); details: test compound at 300 nmol/L; read-out: Binding inhibition percentage BRD4 BD1
T4 construct: BRD2 BD1, BRD3 BD1 and BRD4 BD1 (Cisbio); purchased Cisbio
Procedure: as §1, §2, §3, §4

[5] = molecular target: T5, BRD2 BD2 (Homo sapiens, UniProt P25440); assay: Binding assay, BRD2 BD2 to acetylated histone H4 Peptide-Biotin (EPIgeneous Binding Domain Kit B); details: test compound at 300 nmol/L; read-out: Binding inhibition percentage BRD2 BD2
T5 construct: BRD2 BD2, BRD3 BD2 and BRD4 BD2 (Cisbio); purchased Cisbio
Procedure: as §5, §2, §3, §4

[6] = molecular target: T6, BRD3 BD2 (Homo sapiens, UniProt Q15059); assay: Binding assay, BRD3 BD2 to acetylated histone H4 Peptide-Biotin (EPIgeneous Binding Domain Kit B); details: test compound at 300 nmol/L; read-out: Binding inhibition percentage BRD3 BD2
T6 construct: BRD2 BD2, BRD3 BD2 and BRD4 BD2 (Cisbio); purchased Cisbio
Procedure: as §5, §2, §3, §4

T3 sequence (Q15059 34-140 limits assumed): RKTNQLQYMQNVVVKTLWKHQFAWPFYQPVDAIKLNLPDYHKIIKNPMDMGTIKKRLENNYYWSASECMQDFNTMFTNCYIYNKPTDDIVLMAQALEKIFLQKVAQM
T6 sequence (Q15059 306-415 limits assumed): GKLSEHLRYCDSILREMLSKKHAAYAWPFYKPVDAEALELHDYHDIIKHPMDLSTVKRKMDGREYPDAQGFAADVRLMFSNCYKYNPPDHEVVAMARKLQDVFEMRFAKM
T5 sequence (P25440 344-453 limits assumed): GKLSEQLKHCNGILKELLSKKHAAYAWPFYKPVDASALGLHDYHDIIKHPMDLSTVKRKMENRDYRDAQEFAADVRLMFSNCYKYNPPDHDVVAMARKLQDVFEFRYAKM
T1 sequence (P25440 74-180 limits assumed): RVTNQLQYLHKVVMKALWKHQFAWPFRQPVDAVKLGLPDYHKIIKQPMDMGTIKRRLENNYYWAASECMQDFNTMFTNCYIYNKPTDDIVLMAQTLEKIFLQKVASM

CCn1c(=O)cc(C2CC2)c2cc(N(C)C(=O)c3ccccc3)ccc21 [Example 2, N-(4-cyclopropyl-1-ethyl-2-oxo-1,2-dihydroquinolin-6-yl)-N-methylbenzamide]
inhibition at 0.3 µM [1]: 52% | inhibition at 0.3 µM [2]: 86% | inhibition at 0.3 µM [3]: 85% | inhibition at 0.3 µM [4]: 85% | inhibition at 0.3 µM [5]: 89% | inhibition at 0.3 µM [6]: 91%

CCn1c(=O)cc(N2CCOCC2)c2cc(-n3c(-c4ccccc4)c[nH]c3=O)ccc21 [Example 3, 1-ethyl-4-(morpholin-4-yl)-6-(2-oxo-5-phenyl-2,3-dihydro-1H-imidazol-1-yl)quinolin-2(1H)-one]
inhibition at 0.3 µM [1]: 91% | inhibition at 0.3 µM [2]: 89% | inhibition at 0.3 µM [3]: 94% | inhibition at 0.3 µM [4]: 94% | inhibition at 0.3 µM [5]: 89% | inhibition at 0.3 µM [6]: 91%

CCN1CCC(c2cc(=O)n(CC)c3ccc(C(=O)N(C)c4ccccc4)cc23)CC1 [Example 8, 1-ethyl-4-(1-ethylpiperidin-4-yl)-N-methyl-2-oxo-N-phenyl-1,2-dihydroquinoline-6-carboxamide]
inhibition at 0.3 µM [1]: 93% | inhibition at 0.3 µM [2]: 74% | inhibition at 0.3 µM [3]: 94% | inhibition at 0.3 µM [4]: 94% | inhibition at 0.3 µM [5]: 79% | inhibition at 0.3 µM [6]: 67%

CCn1c(=O)cc(C(C)C)c2cc(N(C)C(=O)c3ccc(Cl)cc3)ccc21 [Example 16, 4-Chloro-N-(1-ethyl-2-oxo-4-(propan-2-yl)-1,2-dihydroquinolin-6-yl)-N-methylbenzamide]
inhibition at 0.3 µM [1]: 44% | inhibition at 0.3 µM [2]: 88% | inhibition at 0.3 µM [3]: 79% | inhibition at 0.3 µM [4]: 70% | inhibition at 0.3 µM [5]: 87% | inhibition at 0.3 µM [6]: 92%

CCn1c(=O)cc(N2CCOCC2)c2cc(-c3cnn(C)c3-c3ccccc3)ccc21 [Example 18, 1-Ethyl-6-(1-methyl-5-phenyl-1H-pyrazol-4-yl)-4-(morpholin-4-yl)quinolin-2(1H)-one]
inhibition at 0.3 µM [1]: 89% | inhibition at 0.3 µM [2]: 85% | inhibition at 0.3 µM [3]: 93% | inhibition at 0.3 µM [4]: 94% | inhibition at 0.3 µM [5]: 86% | inhibition at 0.3 µM [6]: 88%

CCn1c(=O)cc(C2CCN(CCO)CC2)c2cc(C(=O)N(C)c3ccc4c(c3)CCCC4)ccc21 [Example 179, 1-ethyl-4-(1-(2-hydroxyethyl)piperidin-4-yl)-N-methyl-2-oxo-N-(5,6,7,8-tetrahydronaphthalen-2-yl)-1,2-dihydroquinoline-6-carboxamide]
inhibition at 0.3 µM [1]: 93% | inhibition at 0.3 µM [2]: 88% | inhibition at 0.3 µM [3]: 94% | inhibition at 0.3 µM [4]: 95% | inhibition at 0.3 µM [5]: 88% | inhibition at 0.3 µM [6]: 92%

CCn1c(=O)cc(C2CCN(C(=O)C(C)C)CC2)c2cc(C(=O)N(C)c3ccc(C)cc3)ccc21 [Example 183, 1-ethyl-N-methyl-N-(4-methylphenyl)-4-(1-(2-methylpropanoyl)piperidin-4-yl)-2-oxo-1,2-dihydroquinoline-6-carboxamide]
inhibition at 0.3 µM [1]: 81% | inhibition at 0.3 µM [2]: 83% | inhibition at 0.3 µM [3]: 92% | inhibition at 0.3 µM [4]: 94% | inhibition at 0.3 µM [5]: 71% | inhibition at 0.3 µM [6]: 80%

CCn1c(=O)cc(C2CCN(CCO)CC2)c2cc(C(=O)N(C)c3ccc4c(c3)CCCCC4)ccc21 [Example 191]
inhibition at 0.3 µM [1]: 94% | inhibition at 0.3 µM [2]: 88% | inhibition at 0.3 µM [3]: 95% | inhibition at 0.3 µM [4]: 94% | inhibition at 0.3 µM [5]: 87% | inhibition at 0.3 µM [6]: 92%

Cc1ccc(N(C)C(=O)c2ccc3c(c2)c(C2CCN(C)CC2)cc(=O)n3C)cc1 [Example 235, N,1-dimethyl-N-(4-methylphenyl)-4-(1-methylpiperidin-4-yl)-2-oxo-1,2-dihydroquinoline-6-carboxamide]
inhibition at 0.3 µM [1]: 94% | inhibition at 0.3 µM [2]: 87% | inhibition at 0.3 µM [3]: 94% | inhibition at 0.3 µM [4]: 95% | inhibition at 0.3 µM [5]: 82% | inhibition at 0.3 µM [6]: 89%

CCn1c(=O)cc(C2CC2)c2cc(-n3c(=O)[nH]c(=O)n3-c3ccccc3)ccc21 [Example 248, 1-(4-cyclopropyl-1-ethyl-2-oxo-1,2-dihydroquinolin-6-yl)-2-phenyl-1,2,4-triazolidine-3,5-dione]
inhibition at 0.3 µM [1]: 93% | inhibition at 0.3 µM [2]: 90% | inhibition at 0.3 µM [3]: 95% | inhibition at 0.3 µM [4]: 95% | inhibition at 0.3 µM [5]: 90% | inhibition at 0.3 µM [6]: 91%

CCn1c(=O)cc(N2CCOCC2)c2cc(N(C)C(=O)c3ccc(Cl)cc3)ccc21 [Example 250, 4-chloro-N-(1-ethyl-4-(morpholin-4-yl)-2-oxo-1,2-dihydroquinolin-6-yl)-N-methylbenzamide]
inhibition at 0.3 µM [1]: 74% | inhibition at 0.3 µM [2]: 88% | inhibition at 0.3 µM [3]: 91% | inhibition at 0.3 µM [4]: 91% | inhibition at 0.3 µM [5]: 88% | inhibition at 0.3 µM [6]: 92%

CCn1c(=O)cc(C2CC2)c2cc(-c3nc(C)nn3-c3ccccc3)ccc21 [Example 252, 4-cyclopropyl-1-ethyl-6-(3-methyl-1-phenyl-1H-1,2,4-triazol-5-yl)quinolin-2(1H)-one]
inhibition at 0.3 µM [1]: 82% | inhibition at 0.3 µM [2]: 88% | inhibition at 0.3 µM [3]: 92% | inhibition at 0.3 µM [4]: 94% | inhibition at 0.3 µM [5]: 86% | inhibition at 0.3 µM [6]: 90%

CCn1c(=O)cc(N2CCOCC2)c2cc(N3C(=O)CC[C@H]3c3ccccc3)ccc21 [Example 253, 1-ethyl-4-(morpholin-4-yl)-6-((5S)-2-oxo-5-phenylpyrrolidin-1-yl)quinolin-2(1H)-one]
inhibition at 0.3 µM [1]: 70% | inhibition at 0.3 µM [2]: 85% | inhibition at 0.3 µM [3]: 90% | inhibition at 0.3 µM [4]: 92% | inhibition at 0.3 µM [5]: 87% | inhibition at 0.3 µM [6]: 89%

CCn1c(=O)cc(N2CCOCC2)c2cc(-n3ccnc3-c3ccccc3)ccc21 [Example 255, 1-ethyl-4-(morpholin-4-yl)-6-(2-phenyl-1H-imidazol-1-yl)quinolin-2(1H)-one]
inhibition at 0.3 µM [1]: 79% | inhibition at 0.3 µM [2]: 87% | inhibition at 0.3 µM [3]: 92% | inhibition at 0.3 µM [4]: 94% | inhibition at 0.3 µM [5]: 89% | inhibition at 0.3 µM [6]: 90%

CCn1c(=O)cc(N2CCOCC2)c2cc(-n3cc(C)nc3-c3ccccc3)ccc21 [Example 256, 1-ethyl-6-(4-methyl-2-phenyl-1H-imidazol-1-yl)-4-(morpholin-4-yl)quinolin-2(1H)-one]
inhibition at 0.3 µM [1]: 84% | inhibition at 0.3 µM [2]: 88% | inhibition at 0.3 µM [3]: 93% | inhibition at 0.3 µM [4]: 94% | inhibition at 0.3 µM [5]: 86% | inhibition at 0.3 µM [6]: 92%

CCn1c(=O)cc(N2CCOCC2)c2cc(-c3nccn3-c3ccccc3)ccc21 [Example 257, 1-ethyl-4-(morpholin-4-yl)-6-(1-phenyl-1H-imidazol-2-yl)quinolin-2(1H)-one]
inhibition at 0.3 µM [1]: 84% | inhibition at 0.3 µM [2]: 88% | inhibition at 0.3 µM [3]: 92% | inhibition at 0.3 µM [4]: 95% | inhibition at 0.3 µM [5]: 85% | inhibition at 0.3 µM [6]: 91%

CCn1c(=O)cc(N2CCOCC2)c2cc(-c3ccccc3-c3ccccc3)ccc21 [Example 258, 6-(biphenyl-2-yl)-1-ethyl-4-(morpholin-4-yl)quinolin-2(1H)-one]
inhibition at 0.3 µM [1]: 26% | inhibition at 0.3 µM [2]: 72% | inhibition at 0.3 µM [3]: 67% | inhibition at 0.3 µM [4]: 64% | inhibition at 0.3 µM [5]: 81% | inhibition at 0.3 µM [6]: 83%

CCn1c(=O)cc(N2CCOCC2)c2cc(-n3c(-c4ccccc4)cn(CCN4CCOCC4)c3=O)ccc21 [Example 260]
inhibition at 0.3 µM [1]: 88% | inhibition at 0.3 µM [2]: 88% | inhibition at 0.3 µM [3]: 93% | inhibition at 0.3 µM [4]: 94% | inhibition at 0.3 µM [5]: 87% | inhibition at 0.3 µM [6]: 91%
